Structures can show the parent of a compound that is named as a salt. Where two headings read alike, the source gives them in different places.
What was measured:
[1] = tested on: histamine-induced constriction of isolated tracheal smooth muscle of guinea pig; assay: Inhibition of the histamine-induced constriction of isolated tracheal smooth muscle of guinea pig; conditions: isolated guinea pig trachea; for IC50: Cavia porcellus, 0.25 h, read-out: Inhibition of the histamine-induced constriction of isolated tracheal smooth muscle of guinea pig pd'2 (converted)
Experimental: I Study on the Effects Against Spasmogenic Mediators [modified method of J. C. […] The investigation on isolated organs were carried out as follows. OHF Lt/R9 guinea pigs of both sexes weighing 300 to 400 g each were anaesthetized by pentobarbital. Their trachea was removed and sectioned in the opposite side to the site of smooth muscle in longitudinal direction. Subsequently, a strip-like preparation was obtained by […] cutting. […] A rest load of 0.5 g was used. Several washings were carried out during the incubation period of 30 minutes. The change in the tension of the tracheal smooth muscle was followed by using an isometric Grass FT-03 type tensiometer sensor device. A washing was made following the cumulative dose series of the given mediator (e.g. histamine). After reaching the base line, by 15 minutes after administration of the given concentration of the inhibitory (antiasthmatic) substance to be tested, the next cumulative dose series of the mediator was administered. In the case of an inhibitory action, the strength of effect, following the second dose series of the mediator, was […] in comparison to that of the first (control) series. For characterization of strength of the competitive antagonistic effect the pA2 value was determined according to the method of […] A pd'2 value was calculated [J. M. Van Rossum: Arch. Int.

[2] = tested on: carrageenin-induced rat paw edema; assay: Carrageenin-induced rat paw edema test; type: in vivo, rat (female CFY); conditions: Rattus norvegicus, po, 50 mg/kg (p.o.), read-out: Percentage of the protective effect
Experimental: Proc. Soc. Exp. Med. 111, 544 (1962)]. Female CFY rats weighing 100 to 120 g each were used after starvation for 24 hours. The inflammation was induced by injecting 0.1 ml of 1% carrageenin solution into the right hind paw plant. The severity of inflammation was determined by using an Ugo-Basile type plethysmometer. The measurement was carried out before and 1.5, 3 and 4.5 hours after induction of the inflammation. The animals were orally treated with the substance to be tested 1 hour before administration of carrageenin. The effect was expressed as percentage inhibition related to the control group.

[3] = tested on: dextran-induced rat paw edema; assay: Dextran-induced rat paw edema test; type: in vivo; conditions: 50 mg/kg (p.o.)
Experimental: 3) Dextran-induced rat paw edema test The method of S. Gourvaisier and R. Ducrot [Arch. Int. Pharmacodyn. Ther. 102, 33 (1955)] was employed. The method described for the carrageenin edema test was followed, except that the measurements were carried out 30, 60, 90, 120 and 180 minutes after induction of the inflammation.

Row | IC50 [1] [µM] | Structure (SMILES) | change in vivo at 50 mg/kg ([2]; 1.5 hours) [%] | change in vivo at 50 mg/kg ([2]; 3 hours) [%] | change in vivo at 50 mg/kg ([2]; 4.5 hours) [%] | further results
1 | 2.88 | COc1cc2c(cc1OC)C(=C(C#N)SCC(O)CN1CCN(C)CC1)NCC2 (centres unmarked) [Example 21, 2-(6,7-dimethoxy-1,2,3,4-tetrahydro-1-isoquinolinylidene)-2-[2-hydroxy-3-(4-methyl-1-piperazinyl)propyl]mercaptoacetonitrile hydrochloride] |  |  |  | 
2 | 9.12 | CCN(CC)CC(O)CSC(C#N)=C1NCCc2cc(OC)c(OC)cc21 (centres unmarked) [Example 1, 2-(6,7-dimethoxy-1,2,3,4-tetrahydro-1-isoquinolinylidene)-2-(3-diethylamino-2-hydroxypropyl)-mercaptoacetonitrile hydrochloride] |  |  |  | 
3 | 15.5 | COc1cc2c(cc1OC)C(=C(C#N)SCC(O)CN1CCCC1)NCC2 (centres unmarked) [Example 12, 2-(6,7-dimethoxy-1,2,3,4-tetrahydro-1-isoquinolinylidene)-2-[2-hydroxy-3-(1-pyrrolidinyl)propyl]mercaptoacetonitrile hydrochloride hemihydrate] | -27.2 | -18.9 | -17.6 | Percentage of inhibition ([3]; 30 minutes): -20.2%; Percentage of inhibition ([3]; 60 minutes): -15.6%; Percentage of inhibition ([3]; 90 minutes): -14.7%; Percentage of inhibition ([3]; 120 minutes): -14.6%; Percentage of inhibition ([3]; 180 minutes): -12.6%
4 | 13.5 | COc1cc2c(cc1OC)C(=C(C#N)SCC(O)CNC(C)(C)C)NCC2 (centres unmarked) [Example 8, 2-(6,7-dimethoxy-1,2,3,4-tetrahydro-1-isoquinolinylidene)-2-(3-tert-butylamino-2-hydroxypropyl)mercaptoacetonitrile hydrochloride] |  |  |  | 
5 | 50.1 | COc1cc2c(cc1OC)C(=C(C#N)SCC(O)CN(CCO)CCO)NCC2 (centres unmarked) [Example 4, 2-(6,7-dimethoxy-1,2,3,4-tetrahydro-1-isoquinolinylidene)-2-[3-(N,N-bis-2-hydroxyethyl)-amino-2-hydroxypropyl]-mercapto-acetonitrile hydrochloride dihydrate] | -25 | -26 | -24 | 
6 | 12.6 | CCOc1cc2c(cc1OCC)C(=C(C#N)SCC(O)CN1CCCC1)NCC2 (centres unmarked) [Example 13, 2-(6,7-diethoxy-1,2,3,4-tetrahydro-1-isoquinolinylidene)-2-[2-hydroxy-3-(1-pyrrolidinyl)propyl]mercaptoacetonitrile hydrochloride] | -31.8 | -21.8 | -9.05 | 

More lines, now with the values behind:

Row | Structure (SMILES) | IC50 [1] [µM] | change in vivo at 50 mg/kg ([2]; 1.5 hours) [%] | change in vivo at 50 mg/kg ([2]; 3 hours) [%] | change in vivo at 50 mg/kg ([2]; 4.5 hours) [%] | further results
7 | CCOc1cc2c(cc1OCC)C(=C(C#N)SCC(O)CN1CCOCC1)NCC2 (single isomer, unassigned; (-)) [Example 27, (-)-2-(6,7-diethoxy-1,2,3,4-tetrahydro-1-isoquinolinylidene)-2-[2-hydroxy-3-(4-morpholinyl)propyl]mercaptoacetonitrile d-camphorsulfonate] | 0.537 |  |  |  | 
8 | N#CC(SCC(O)CN1CCOCC1)=C1NCCc2ccccc21 (centres unmarked) [Example 16, 2-(1,2,3,4-tetrahydro-1-isoquinolinylidene)-2-[2-hydroxy-3-(4-morpholinyl)propyl]mercaptoacetonitrile hydrochloride hemihydrate] | 32.4 | -29.3 | -22.2 | -20 | 
9 | CCOc1cc2c(cc1OCC)C(=C(C#N)SCC(O)CN1CCN(C)CC1)NCC2 (centres unmarked) [Example 22, 2-(6,7-diethoxy-1,2,3,4-tetrahydro-1-isoquinolinylidene)-2-[2-hydroxy-3-(4-methyl-piperazinyl)propyl]mercaptoacetonitrile hydrochloride] | 7.24 |  |  |  | 
10 | COc1cc2c(cc1OC)C(=C(C#N)SCC(O)CNC1CCCCC1)NCC2 (centres unmarked) [Example 10, 2-(6,7-dimethoxy-1,2,3,4-tetrahydro-1-isoquinolinylidene)-2-(3-cyclohexylamino-2-hydroxypropyl)mercaptoacetonitrile hydrochloride] | 105 | -14.8 | -13 | -7.2 | Percentage of inhibition ([3]; 30 minutes): -25%; Percentage of inhibition ([3]; 60 minutes): -24%; Percentage of inhibition ([3]; 90 minutes): -25%; Percentage of inhibition ([3]; 120 minutes): -27%; Percentage of inhibition ([3]; 180 minutes): -50%
11 | CCOc1cc2c(cc1OCC)C(=C(C#N)SCC(O)CNC1CCCCC1)NCC2 (centres unmarked) [Example 11, 2-(6,7-diethoxy-1,2,3,4-tetrahydro-1-isoquinolinylidene)-2-(3-cyclohexylamino-2-hydroxypropyl)mercaptoacetonitrile hydrochloride] | 35.5 |  |  |  | 
12 | CCOc1cc2c(cc1OCC)C(=C(C#N)SCC(O)CN(CCO)CCO)NCC2 (centres unmarked) [Example 5, 2-(6,7-diethoxy-1,2,3,4-tetrahydro-1-isoquinolinylidene)-2-[3-(N,N-bis-2-hydroxyethyl)-amino-2-hydroxypropyl]mercapto-acetonitrile hydrochloride] | 45.7 | -21 | -16.5 | -10 | 
13 | COc1cc2c(cc1OC)C(=C(C#N)SCC(O)CN(C)CCO)NCC2 (centres unmarked) [Example 3, 2-(6,7-dimethoxy-1,2,3,4-tetrahydro-isoquinolinylidene)-2-[3-(N-methyl-N-2-hydroxyethyl)-amino-2-hydroxypropyl]-mercapto-acetonitrile hydrochloride] | 26.9 |  |  |  | 
14 | CCOc1cc2c(cc1OCC)C(=C(C#N)SCC(O)CNC(C)C)NCC2 (centres unmarked) [Example 7, 2-(6,7-diethoxy-1,2,3,4-tetrahydro-1-isoquinolinylidene)-2-(2-hydroxy-3-isopropylaminopropyl)mercaptoacetonitrile hydrochloride] | 17.4 |  |  |  | 
15 | COc1cc2c(cc1OC)C(=C(C#N)SCC(O)CN1CCCCC1)NCC2 (centres unmarked) [Example 15, 2-(6,7-dimethoxy-1,2,3,4,-tetrahydro-1-isoquinolinylidene)-2-[2-hydroxy-3-(1-piperidinyl)propil]mercaptoacetonitrile hydrochloride] | 34.7 |  |  |  | 
16 | COc1cc2c(cc1OC)C(=C(C#N)SCC(O)CNC(C)C)NCC2 (centres unmarked) [Example 6, 2-(6,7-dimethoxy-1,2,3,4-tetrahydro-1-isoquinolinylidene)-2-(2-hydroxy-3-isopropylaminopropyl)mercaptoacetonitrile hydrochloride hemihydrate] | 0.204 | 0 | -17 | 0 | 
17 | CCOc1cc2c(cc1OCC)C(=C(C#N)SCC(O)CN1CCOCC1)NCC2.Cl (single isomer, unassigned; (+)) [Example 28, (+)-2-(6,7-diethoxy-1,2,3,4-tetrahydro-1-isoquinolinylidene)-2-[2-hydroxy-3-(4-morpholinyl)propyl]mercaptoacetonitrile hydrochloride] |  |  |  |  | Inhibition of the histamine-induced constriction of isolated tracheal smooth muscle of guinea pig pd'2 ([1]; 15 min): 6.36
18 | COc1cc2c(cc1OC)C(=C(C#N)SCC(CN1CCOCC1)OC(C)=O)NCC2 (centres unmarked) [Example 23, 2-(6,7-dimethoxy-1,2,3,4-tetrahydro-1-isoquinolinylidene)-2-[2-acetoxy-3-(4-morpholinyl)propyl]mercaptoacetonitrile hydrochloride] | 17.4 | -33.8 | -30.9 | -29.5 | 
19 | CCOc1cc2c(cc1OCC)C(=C(C#N)SCC(O)CNC(C)(C)C)NCC2 (centres unmarked) [Example 9, 2-(6,7-diethoxy-1,2,3,4-tetrahydro-1-isoquinolinylidene)-2-(3-tert-butylamino-2-hydroxypropyl)mercaptoacetonitrile hydrochloride hemihydrate] | 41.7 |  |  |  | 

— patent publication US5179089A, “Isoquinoline compounds, compositions and use” (Chinoin Gyogyszer es Vegyeszeti Termekek Gyara Rt., priority 1990, dated 1993)
